Key:
GST-p53 His175 = GST-p53 His175 (Homo sapiens, UniProt P04637, R175H); assay: Dot immunobinding test with purified GST-p53 fusion proteins; format: binding; details: 20 μg GST fusion purified proteins
Procedure: (A) Total extracts deriving from SKBR3, (His-175) HT29, (His-273) and H1299 (p53 free) tumour cells have been incubated (1 mg) on SIMP1 and SIMPIKO peptide labelled nitrocellulose membrane and Dot Blot analysed. In (B) the membranes have been incubated with 20 μg of wild type WT GST-p53 purified protein or GST-p53 His-175, GST-p53-His-175, 74-298 or GST alone. In both experiments dots have been detected by labelling the membranes with anti-p53 (DO1) antibody
Nitrocellulose membranes have been cut, washed with water and blotted on the paper filters. The peptides at 250 mM concentration have been transferred on membrane. Labelled membrane has been washed for 10 min. with TBST buffer (10 mM Tris-HCl pH 7.4, 150 mM NaCl, 0.05% (v/v) Tween-20) and then blocked for 45 min with TBST/5% milk. Then the membranes have been incubated for 6 hours at 4° C. in shaker with 1 mg of total protein extract or 20 μg of GST fusion purified proteins. Successively the membranes have been washed with TBST buffer and decorated with anti-p53 antibody (DO1) as a primary antibody. As secondary antibody horse peroxidase conjugated goat antibody has been used. Immunolabelled lanes have been detected using chemiluminescence analysis (Pierce).
The membranes decorated with SIMP peptides also have been incubated with GST-p53 His175, GST p53His74-298, GST WTp53 fusion proteins, GST control.

HT29 cells = assay: In vivo tumorigenicity test (xenograft of peptide transfected HT29 cells); details: naked mice, s.c. 5×10^5 peptide transfected cells/mouse, 5 weeks
Procedure: In order to assay SIMP1 in vivo antitumor activity nu/nu […] mice were administered subcutaneously with SIMP1, SIMP1KO and SIMP5M transfected HT29 cells (5.0×10^5 cells/mouse). Tumour growth has been monitored over 5 weeks.
Xenograft assays have been carried out by administration to naked mice subcutaneous injections containing 5×10^5 cells/mouse of SIMP1, SIMP1KO and SIMP5M peptide transfected colon and rectum tumour human cell line (nu/nu CD1 Charles River mice). The tumour growth together with animal body weight is monitored for 5 weeks in order to estimate the chronic toxicity
The experiments have been carried out by administration to naked mouse (nu/nu CD1 Charles River mice) subcutaneous injections containing 5×10^5 cells/mouse. The tumour growth has been monitored together with animal body weight for 5 weeks in order to estimate possible not occurred chronic toxic effects (FIG. 5).

[1] = test system: tumour cell lines containing His-175 or His-273 p53 mutation; assay: Summary of activity by p53 mutation type; format: cell-based; details: for activity on p53 mutant categories (His-175, His-273): summary statement; for specificity for p53 mutation type: FIG. 6 summary
Source text: SIMP1M: FQQSSTARSATW (SEQ ID NO:16) (MW: 1369, PI: 9.75) peptide is a mutated version of SIMP1 peptide wherein K138 residue has been replaced by Arginine.
FIG. 6 that SIMP peptides and by-products thereof displace protein complexes involving mutated protein p53 and p73.

m-p53His-273/p73 complex = biological target: T1, m-p53His-273/p73 complex (Homo sapiens, UniProt P04637, R273H); assay: Coprecipitation (immunoprecipitation) test of the m-p53/p73 complex in MDA-MB-468 cells; format: cell-based; details: His-273 mutation, peptide 20 μM, anti-p73 immunoprecipitation
T1 construct: Total cellular lysates (1 mg), have been immunoprecipitated with antibodies directed against p73; endogenous in cells; host or cells: MDA-MB-468
Procedure: (§1) (A) MDA-MB-468 (5×10^5) cells have been transfected using a lipofectamine containing mixture, βgal expression vector, which normalizes transfection efficiency, and SIMPI peptide (20 μM). Total cellular lysates (1 mg), have been immunoprecipitated with antibodies directed against p73 and immunoglobulins (IgG). Immunoprecipitates and an aliquot (50 μg) of total lysate after 12% acrylamide gel electrophoretic run have been transferred on nitrocellulose membrane and labelled with antibodies shown in the figure. (B) MDA-MB-468 cells, have been transfected using SIMP1 and SIMP5,6. peptides. Successively, cells have been washed and stimulated with 3 μM Adriamycin. Total obtained lysates (30 μg) have been assayed for the expression of PARP and BAX apoptotic proteins. Lysate has been normalized by assaying γ-tubulin expression. (C-D). Transactivation tests have been carried out by transient transfection of H1299 cells using a mixture containing lipofectamine, SIMP1, SIMP5,6 indicated plasmids (20 μM each) together with pLUC-BAX reporter vector. To each reaction mixture an equal amount of […] expression vector was added, in order to normalize the transfection efficiency.
The cell extracts have been processed in a lysis buffer containing 50 mm Tris HCl pH 8, 100 mM NaCl, 10% glycerol, 1% Triton X-100, 1 mM EDTA, 100 mM NaF, MgCl2, 1 mM PMSF, protease and phosphatase inhibitors. Then extracts have been sonicated and centrifuged at 14.000 rpm for 10 min for the debris removal.
50 μg of solubilised proteins have been separated by electrophoresis on 10 or 15% SDS-polyacrylamide gel. Western blot analysis has been carried out using anti-p53 primary antibodies (DO1 Calbiochem), rabbit anti-PARP, rabbit polyclonal anti-Bax, anti-p21 and anti-tubulin monoclonal antibodies (Calbiochem). […] Immunolabelled lanes have been detected using chemiluminescence analysis (Pierce). […]
In order to evaluate the activity of SIMPI peptide and SIMP1KO and SIMP1M derivatives the ability in disrupting the oncogenic m-p53His-273/p73 complex has been analysed.

MDA-MB-468 cells = assay: Apoptotic tests (PARP and BAX expression, Western blot) after Adriamycin; format: cell-based, human; details: MDA-MB-468, 3 μM Adriamycin
Procedure: as §1
50 μg of solubilised proteins have been separated by electrophoresis on 10 or 15% SDS-polyacrylamide gel. Western blot analysis has been carried out using anti-p53 primary antibodies (DO1 Calbiochem), rabbit anti-PARP, rabbit polyclonal anti-Bax, anti-p21 and anti-tubulin monoclonal antibodies (Calbiochem). Goat anti-mouse and goat anti-rabbit horse peroxidase conjugated secondary antibodies (Amersham) have been used for the expression analyses. Immunolabelled lanes have been detected using chemiluminescence analysis (Pierce).
To this end cell viability and apoptotic tests (FIG. 1B, FIG. 4 B-C) on MDA-MB468 breast carcinoma have been carried out.

[2] = test system: m-p53 His273 inhibition on p73 transcription activity; assay: Transactivation test with pLUC-BAX reporter in transiently transfected H1299 cells; format: cell-based, human; details: peptides 20 μM each
Procedure: as §1, with “efficiency. […]” for “efficiency.”
To this end, we have analyzed the ability in blocking the His273 p53 induced inhibition on transcription activity. […]

[3] = test system: MDA-MB-468 cells (His-273 p53 mutation); assay: Transactivation test (pLUC-BAX, pLUC-p21) in Adriamycin treated MDA-MB-468 cells; format: cell-based, human; details: MDA-MB-468, 3 μM Adriamycin 24 hours post-transfection, luciferase reporter
Procedure: MDA-MB-468 cells have been transfected using a mixture containing lipofectamine, pLUC-BAX plasmid, β-galactosidase expression vector, SIMP1 and SIMP control peptides. The cells, 24 hours post-transfection, have been treated with 3 μM Adriamycin.
MDA-MB-468 cells have been transfected using a mixture containing lipofectamine, pLUC-BAX plasmid, pLUC-p21, β-galactosidase expression vector, SIMP1 peptides and SIMP1M and SIMP1KO derived mutant thereof. The cells, 24 hours post-transfection, have been treated with 3 μM Adriamicyn and then processed.
SKBR3, HT-29, MDA-MB-468 cell lines have been transfected with Lipofectamine 2000 according to the supplier instructions (InVitrogen).
Cells (1.5×10^5) have been transiently transfected using SIMP peptides, expression plasmids and reporter constructs as internal controls for transfection efficiency. After the transfection, SKBR3, HT-29 and MDA-MB-468 have been incubated with 3 μM ADR over 24 hours. Cells have been washed with cold PBS and re-suspended in lysis buffer (Promega) and incubated for 10 min at room temp. Insoluble material has been centrifuged and luciferase activity has been determined using a commercial kit with a luminometer (Turner).

[4] = test system: MDA-MB468 breast and HT29 colon carcinoma cell lines; assay: Cell viability / proliferation assays after peptide transfection; format: cell-based, human; details: peptide transfected cells
Procedure: (A) In order to verify the SIMPI peptide specificity, independently from the cellular context, we tested SIMP1 peptides in some Adriamicyn treated colon carcinoma HT29 (His-273). cell lines. The cells have been transfected using a mixture containing lipofectamine, pLUC-BAX plasmid, β-galactosidase expression vector, SIMP1 and SIMP5M control peptides. 24 hours post-transfection, have been treated with 3 μM Adriamicyn. (B-C). Viability and inhibition assays have been carried out after transfection using SIMP1 and SIMP5M peptides in HT29 (colon cancer) and MDA-MB-468 (breast cancer) cell lines
Cell viability has been tested using Trypan Blue exclusion assays.
We observed a reduction of cell proliferation in MDA-MB468 breast and HT29 colon carcinoma cell lines.

[5] = test system: SKBR3 tumour lines, containing his-175 mutation; details: SKBR3, his-175 mutation; cited from earlier work
SW480 and MDA-MB-468 = details: cell lines containing other types of mutation (SW480, MDA-MB-468); cited from earlier work

Sequence	reaction with GST-p53 fusion proteins (dot blot, anti-p53 DO1) (GST-p53 His175)	tumour growth (tumour size) in vivo (HT29 cells)	activity on p53 mutant categories (His-175, His-273) [1]	specificity for p53 mutation type [1]	sensitivity to chemotherapeutic treatment [5]	change in apoptotic response (SW480 and MDA-MB-468)	other results
FQQSSTAASATW (SEQ ID NO1 wherein K is substituted by A) [SIMP1KO]	no reaction was observed	tumour growth similar to non treated control	displays no activity on both mutant categories				
FQQSSTARSATW (SEQ ID NO1 wherein k is substituted by R) [SIMP1M]		meaningful reduction of the growth (tumour size)	displays the same, although increased, functions	display specificity for His-273 mutation containing tumours			disruption of m-p53 His-273/p73 protein complex (p73 bound m-p53 amount) (m-p53His-273/p73 complex): disrupt selectively m-p53/p73 complex; apoptotic response (MDA-MB-468 cells): increase the apoptotic response to chemotherapeutic agents; restoration of p73 transcription activity inhibited by m-p53 His273 [2]: modify mutated p53/p73 protein complex restoring p73 oncosuppressive functions; Adriamycin chemosensitivity / p73 transcription response [3]: increase Adriamycin chemosensitivty; cell proliferation in vitro [4]: reduce the cell proliferation in vitro; activity on tumour cell lines containing different mutation types ([1]; mutations other than His-273): has no activity on tumour cell lines containing different mutation types
GQRDFNEGQSAPA (p73 SIMP (aa 200-211) wherein Q has been inserted between G (aa200) and R (aa201)) [SIMP6]					more sensitive to chemotherapeutic treatment	do not induce changes in the apoptotic response	
VVKRCPNHE (p73 SIMP (aa 190-198)) [SIMP5]					more sensitive to chemotherapeutic treatment	do not induce changes in the apoptotic response	
VVKRCPNHELGRD (p73 SIMP (aa 190-202)) [SIMP5M, control peptide, reference compound]	specifically reacts against his175 m-p53	tumour growth similar to non treated control		specific for His-175 mutation containing tumours			
